Experimental findings from patent US6660737B2, “Medicinal uses of hydrazones” (The Procter & Gamble Company, priority 2001, dated 2003) are described below.

This assay has as its system VEGF. Put plainly: VEGF-ELISA assay: VEGF secretion from HL-1 cardiomyocyte cell line. The assay is classed as cell-based, Murine. The settings on record: HL-1 cells, 18 hr, VEGF in conditioned media by ELISA; read-out: EC50 (concentration of compound that induces the production of an amount of VEGF equal to half the maximum amount of VEGF induced by that compound). On the procedure: ^1EC50 is the concentration of compound that induces the production of an amount of VEGF equal to half the maximum amount of VEGF induced by that compound.
Any compound of the present invention can be screened by a VEGF-ELISA assay. VEGF secretion is assayed in the HL-1 cardiomyocyte cell line as described in Claycomb, W. C., “HL-1 cells: a cardiac muscle cell line that contracts and retains phenotypic characteristics of the adult cardiomyocyte”, Proc. Natl. Acad. Sci U.S.A., Vol. 95, pp. 2979-84 (1998). For experiments, HL-1 cells are plated in 96-well plates at a density of 2×10^4 cells per well in growth medium: EXCEL 320 media (JRH Biosciences, Lenexia, Kans.) plus 10% fetal bovine serum (BioWhitaker), 100 nM retinoic acid (Sigma, St Louis, Mo.), 10 μM norepinephrine (Sigma), 10 μg/ml insulin (Life Technologies, Grand Island, N.Y.), 1× non-essential amino acid supplement (Life Technologies), 50 μg/ml endothelial cell growth supplement (Upstate Biotechnology, Lake Placid, N.Y.), 100 units/ml penicillin, 100 units/mil streptomycin (Life Technologies). After 24 hrs, the media is replaced with a low-growth media (HL-1 media with 2% fetal bovine serum and without endothelial cell growth supplement) containing test compounds with 0.5% dimethyl sulfoxide (DMSO). After 18 hrs, conditioned media from the treated cells was assayed for VEGF content with a Murine VEGF-ELISA kit (R & D Systems, Minneapolis, Minn.). The amount of VEGF secreted into the media over an 18 hr period is normalized to positive control wells which are treated with a maximally effective concentration (1 mM) of deferoxamine mesylate (Sigma, St. Louis) and are reported as “percent activity,” where the VEGF in unstimulated wells is defined as 0% and the VEGF in wells treated with 1 mM deferoxamine is defined as 100%. Potency is determined by stimulating cells with 10 concentrations of test compounds (200 nM to 100 μM) and fitting the data to a variable slope sigmoidal dose-response curve using GraphPad Prism version 3.00 for Windows 95 (GraphPad Software, San Diego, Calif.). Determinations for each test compound are performed in three separate experiments and the means ±standard deviation of the Log(EC50) and maximum response are evaluated. Compounds for pharmaceutical use are selected based upon the greatest percent activity.
Consider `C(=N\Nc1ccccn1)/c1ccccn1` [Example 1, N-Pyridin-2-yl-N′-2-ylmethylene-hydrazine], for which the EC50 was 1.6 µM. The value for `C/C(=N\Nc1ccccn1)c1ccccn1` [Example 2, N-Pyridin-2-yl-N′-(1-pyridin-2-yl-ethylidene)hydrazine] was 0.65 µM; that for `CN(/N=C/c1ccccn1)c1ccccn1` [Example 3, N-methyl-N-pyridin-2-yl-N′-pyridin-2-ylmethylene-hydrazine] was 0.75 µM; that for `c1ccc(CNNc2ccccn2)nc1` [Example 4, N-Pyridin-2-yl-N′-pyridin-2-ylmethyl-hydrazine] was 5.7 µM. Next, `C/C(=N\N(C)c1ccccn1)c1ccccn1` [Example 5, N-Methyl-N-pyridin-2-yl-N′-(1-pyridin-2-yl-ethylidene)-hydrazine]: 26.2 µM.

Turning to `C(=N\Nc1nc2ccccc2s1)/c1ccccn1` [Example 6, N-Benzothiazol-2-yl-N′-pyridin-2-ylmethylene-hydrazine], the EC50 is 1.5 µM. In the case of `C(=N\Nc1ccc2ccccc2n1)/c1ccccn1` [Example 7, N-Pyridin-2-ylmethylene-N′-quinolin-2-yl-hydrazine], the EC50 was determined as 3.15 µM.

For `FC(F)(F)c1cc(C(F)(F)F)c2ccc(N/N=C/c3ccccn3)nc2n1` [Example 8, N-(5,7-Bis-trifluoromethyl-[1,8]naphthyridin-2-yl)-N′-pyridin-2-ylmethylene-hydrazine], the EC50 amounted to 1.57 µM. As for `Clc1ccc(N/N=C/c2ccccn2)nn1` [Example 9, N-(6-Chloro-pyridazin-3-yl)-N′-pyridin-2-ylmethylene-hydrazine], the EC50 was determined as 6.7 µM. Next, `FC(F)(F)c1cnc(N/N=C/c2ccccn2)c(Cl)c1` [Example 10, N-(3-Chloro-5-trifluoromethyl-pyridin-2-yl)-N′-pyridin-2-ylmethylene-hydrazine]: 1.56 µM. Consider `CN(/N=C/c1ccccn1)c1ncc(C(F)(F)F)cc1Cl` [Example 11, N-(3-Chloro-5-trifluoromethyl-pyridin-2-yl)-N-methyl-N′pyridin-2-ylmethylene-hydrazine], for which the EC50 is 15 µM. The value for `C/C(=N\Nc1nc(C)cc(C)n1)c1ccccn1` [Example 12, N-(4,6-Dimethyl-pyrimidin-2-yl)-N′-(1-pyridin-2-yl-ethylidien)-hydrazine] was 4.78 µM. Next, `C/C(=N\Nc1ccc(C(F)(F)F)cc1)c1ccccn1` [Example 13, N-(1-Pyridin-2-yl-ethylidene)-N′-(4-trifluoromethyl-phenyl)-hydrazine]: 4.3 µM; `C(=N\Nc1nnc2c(n1)[nH]c1ccccc12)/c1ccccn1` [Example 14, N-Pyridin-2-ylmethylene-N′-(9H-1,3,4,9-tetraaza-fluoren-2-yl)-hydrazine]: 2.3 µM. The value for `C/C(=N\Nc1nnc2c(n1)[nH]c1ccccc12)c1ccccn1` [Example 15, N-(1-Pyridin-2-yl-ethylidene)-N-(9H-1,3,4,9-tetraaza-fluoren-2-yl)-hydrazine] was 0.36 µM. On to `C(=N\Nc1ccccc1)/c1ccccn1` [Example 16, N-Phenyl-N′-pyridin-2-ylmethylene-hydrazine], for which the EC50 worked out at 13 µM. Next, `Cc1ccccc1/C=N/Nc1ccccc1` [Example 17, N-(2-Methyl-benzylidene)-N′-phenyl-hydrazine]: 15 µM; `Oc1ccccc1/C=N/Nc1ccccc1` [Example 18, 2-(Phenyl-hydrazonomethyl)-phenol]: 14 µM. Regarding `Oc1ccccc1/C=N/Nc1nccnc1Cl` [Example 19, 2-[(3-Chloro-pyrazin-2-yl)-hydrazonomethyl]-phenol], the EC50 is 15 µM. Next, `Oc1ccccc1/C=N/Nc1ccccn1` [Example 20, 2-Pyridyl-(2-hydroxy-benzylidene)-hydrazide]: 5.7 µM; `Oc1ccc(/C=N/Nc2nccnc2Cl)c(O)c1` [Example 21, 4-[(3-Chloro-pyrazin-2-yl)-hydrazonomethyl]-benzene-1,3-diol]: 10.3 µM; `Cc1ncc(CO)c(/C=N/Nc2ccccn2)c1O` [Example 22, 5-Hydroxymethyl-2-methyl-4-(pyridin-2-yl-hydrazonomethyl)-3-ol]: 1.77 µM. For `COc1cccc(/C=N/Nc2ccccn2)c1O` [Example 23, 2-Methoxy-6-(pyridin-2-yl-hydrazonomethyl)-phenol], the EC50 was determined as 7 µM. For the molecule `Cc1cccc(/C=N/Nc2ccccn2)n1` [Example 25, N-(6-Methyl-pyridin-2-ylmethylene)-N′-pyridin-2-yl-hydrazine], the EC50 is 28.6 µM.

With `Cc1cccc(/C=N/Nc2ccc(Cl)nn2)n1` [Example 26, N-(6-Chloro-pyridazine-3-yl)-N′-(6-methyl-pyridin-2-ylmethylene)-hydrazine], the EC50 was 40 µM. The value for `Cc1sc2ncnc(N/N=C/c3c(O)ccc4ccccc34)c2c1C` [Example 27] was 1.8 µM; that for `Oc1ccc(/C=N/Nc2nc(N3CCCC3)nc(N3CCCC3)n2)cc1O` [Example 28, 4-[(4,6-Di-pyrrolidin-1-yl-[1,3,5]triazin-2-yl)-hydrazonomethyl]-benzene-1,2-diol] was 1.1 µM.
